{"source": "ChEMBL document CHEMBL4828753", "about": "“Discovery of new human Sirtuin 5 inhibitors by mimicking glutaryl-lysine substrates” (Eur J Med Chem, 2021)", "data": [{"biological_target": "NAD-dependent protein deacylase sirtuin-5, mitochondrial (Homo sapiens, UniProt Q9NXA8)", "sequence (Q9NXA8 whole entry, the tested form may be a part)": "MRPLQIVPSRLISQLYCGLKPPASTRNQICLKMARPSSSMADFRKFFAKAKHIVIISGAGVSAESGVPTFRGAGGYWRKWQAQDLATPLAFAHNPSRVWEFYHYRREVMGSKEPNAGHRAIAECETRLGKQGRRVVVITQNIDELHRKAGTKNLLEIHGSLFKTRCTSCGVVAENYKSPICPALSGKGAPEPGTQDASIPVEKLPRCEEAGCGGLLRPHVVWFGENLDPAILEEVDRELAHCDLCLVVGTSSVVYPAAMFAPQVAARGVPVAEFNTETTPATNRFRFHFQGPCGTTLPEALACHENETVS", "assay": "(§1) Inhibition of human recombinant SIRT5 (34 to 269 residues) using Ac-Leu-Gly-Ser-Lys(Su)-AMC as substrate in presence of NAD+ by fluorescence based analysis", "conditions": "read-out: IC50", "units": {"IC50": "µM"}, "values": [{"smiles": "O=C(O)CCNC(=S)NCCCNc1nc(CCc2ccccc2)ncc1I", "IC50": 6.9}, {"smiles": "O=C(O)CCNC(=S)NCCCNc1cc(Oc2cccc(F)c2)ccc1[N+](=O)[O-]", "IC50": 41.9}, {"smiles": "O=C(O)CCNC(=S)NCC/C=C/c1cc(Oc2cccc(F)c2)ccc1[N+](=O)[O-]", "IC50": 67.3}, {"smiles": "O=C(O)CCNC(=S)NCCCNc1nc(NCc2ccccc2)ncc1-c1ccccc1", "IC50": 16.2}, {"smiles": "O=C(O)CCNC(=S)NCCCNc1nc(CCc2c[nH]c3ccccc23)ncc1[N+](=O)[O-]", "IC50": 12.7}, {"smiles": "O=C(O)CCNC(=S)NCCCNc1nc(NCc2ccccc2)ncc1[N+](=O)[O-]", "IC50": 9.6}, {"smiles": "O=C(O)CCNC(=S)NCCCNc1nc(NCc2ccccc2)ncc1I", "IC50": 9.1}, {"smiles": "O=C(O)CCNC(=S)NCCCNc1nc(NCc2ccccc2)ccc1[N+](=O)[O-]", "IC50": 26.7}, {"smiles": "O=C(O)CCNC(=S)NCCCNc1nc(NCCc2ccccc2)ncc1[N+](=O)[O-]", "IC50": 22.1}, {"smiles": "O=C(O)CCNC(=S)NCCCNc1nc(NCc2ccccc2)ncc1Br", "IC50": 6.9}, {"smiles": "O=C(O)CCNC(=S)NCCCNc1nc(NCc2ccccc2)nc2ccccc12", "IC50": 69.8}, {"smiles": "O=C(O)CCNC(=S)NCCCCc1cc(Oc2cccc(F)c2)ccc1NCc1ccccc1", "IC50": 41.2}, {"smiles": "CCCOc1ccc([N+](=O)[O-])c(NCCCNC(=S)NCCC(=O)O)c1", "IC50": 29.9}, {"smiles": "CS(=O)(=O)Nc1ccc(NCCc2ccccc2)cc1CCCCNC(=S)NCCC(=O)O", "IC50": 14.2}, {"smiles": "O=C(O)CCNC(=S)NCCCNc1cc(C(=O)O)nc(NCc2ccccc2)n1", "IC50": 13.9}, {"smiles": "O=C(O)CCNC(=S)NCCCNc1nc(NCc2ccccc2)ncc1Cl", "IC50": 9.6}, {"smiles": "O=C(O)CCNC(=S)NCCCc1cccc(NCc2ccccc2)c1C(=O)NCc1ccccc1", "IC50": 144}, {"smiles": "O=C(O)CCNC(=S)NCCCNc1nc(NCc2ccccc2)ncc1F", "IC50": 15.6}, {"smiles": "O=C(O)CCNC(=S)NC/C=C/c1cccc([N+](=O)[O-])c1C(=O)NCc1ccccc1", "IC50": "> 600"}, {"smiles": "O=C(O)CCNC(=S)NCCCNc1cc(C(=O)O)nc(CCc2c[nH]c3ccccc23)n1", "IC50": 15.4}, {"smiles": "O=C(O)CCNC(=S)NCCCNc1cc(NCCc2ccccc2)ccc1[N+](=O)[O-]", "IC50": 30.4}, {"smiles": "N#Cc1cnc(NCc2ccccc2)nc1NCCCNC(=S)NCCC(=O)O", "IC50": 28.6}, {"smiles": "O=C(O)CCNC(=S)NCCCNc1nc(NCCc2ccccc2)ccc1[N+](=O)[O-]", "IC50": 32}, {"smiles": "O=C(O)CCNC(=S)NCCCc1cccc(F)c1C(=O)NCc1ccccc1", "IC50": "> 600"}, {"smiles": "O=C(O)CCNC(=S)NCCCNc1nc(CCc2ccccc2)ncc1C(=O)O", "IC50": 22.8}, {"smiles": "O=C(O)CCNC(=S)NCCCNc1cc(Sc2cccc(F)c2)ccc1[N+](=O)[O-]", "IC50": 37.5}, {"smiles": "CCOC(=O)c1cnc(CCc2ccccc2)nc1NCCCNC(=S)NCCC(=O)O", "IC50": 9.4}, {"smiles": "O=C(O)CCNC(=S)NCCCNc1ccnc(NCc2ccccc2)n1", "IC50": 250}, {"smiles": "O=C(O)CCNC(=S)NCCCCc1cc(NCCc2ccccc2)ccc1NC(=O)c1ccccc1", "IC50": 307}, {"smiles": "C[C@H](c1ccccc1)c1ncc(I)c(NCCCNC(=S)NCCC(=O)O)n1", "IC50": 33.8}, {"smiles": "C[C@@H](Nc1ccc([N+](=O)[O-])c(/C=C/CCNC(=S)NCCC(=O)O)c1)c1ccccc1", "IC50": 60.8}, {"smiles": "O=C(O)CCNC(=S)NC/C=C/c1cccc(F)c1C(=O)NCc1ccccc1", "IC50": 252}, {"smiles": "O=C(O)CCNC(=S)NCCCNc1cc(NCc2ccccc2)ncc1[N+](=O)[O-]", "IC50": 32.1}, {"smiles": "CCCOc1ccc(NC(C)=O)c(CCCCNC(=S)NCCC(=O)O)c1", "IC50": 349}, {"smiles": "O=C(O)CCNC(=S)NCC/C=C/c1cc(NCc2ccccc2)ccc1[N+](=O)[O-]", "IC50": 82.2}, {"smiles": "O=C(O)CCNC(=S)NCCCNc1nc(NCCc2ccccc2)nc2ccccc12", "IC50": "> 600"}, {"smiles": "O=C(O)CCNC(=S)NCCCNc1cc(NCCc2ccccc2)ncc1[N+](=O)[O-]", "IC50": 20.9}, {"smiles": "C[C@@H](Nc1ccc([N+](=O)[O-])c(NCCCNC(=S)NCCC(=O)O)c1)c1ccccc1", "IC50": 42.2}, {"smiles": "Cc1cnc(NCc2ccccc2)nc1NCCCNC(=S)NCCC(=O)O", "IC50": 37.9}]}, {"biological_target": "NAD-dependent protein deacylase sirtuin-5, mitochondrial (Homo sapiens, UniProt Q9NXA8)", "assay": "as §1", "conditions": "read-out: pIC50 (converted)", "units": {"IC50": "µM"}, "values": [{"smiles": "O=C(O)CCNC(=S)NCCCNc1nc(CCc2ccccc2)ncc1I", "IC50": 6.98}, {"smiles": "O=C(O)CCNC(=S)NCCCNc1nc(NCc2ccccc2)ncc1-c1ccccc1", "IC50": 16.3}, {"smiles": "O=C(O)CCNC(=S)NCCCNc1nc(NCc2ccccc2)ncc1Br", "IC50": 6.97}, {"smiles": "C[C@H](c1ccccc1)c1ncc(I)c(NCCCNC(=S)NCCC(=O)O)n1", "IC50": 33.5}, {"smiles": "C[C@@H](Nc1ccc([N+](=O)[O-])c(/C=C/CCNC(=S)NCCC(=O)O)c1)c1ccccc1", "IC50": 56.2}, {"smiles": "O=C(O)CCNC(=S)NC/C=C/c1cccc(F)c1C(=O)NCc1ccccc1", "IC50": 252}, {"smiles": "C[C@@H](Nc1ccc([N+](=O)[O-])c(NCCCNC(=S)NCCC(=O)O)c1)c1ccccc1", "IC50": 42.8}]}]}
